Laboratory results published in patent US9439430B2, “Method of controlling resistant harmful plants” (priority 2012, dated 2016).

Columns and labels:
[1] = system: KCHSC; assay: Greenhouse test, post-emergence (PO) application, foliar effect; assay type: in vivo, Kochia scoparia; conditions: (A) 50, (B) 20, mixture 50 + 20 g of AS/ha, 3 weeks after application
Text: (§1) The 1:1 mixture of the two soil types was used specifically for cultivating small-seeded dicotyledonous weed since the standard field soil on its own tends to silt up, which may have an adverse effect on the emergence of small-seeded weeds. The resistances mentioned in the tables were confirmed beforehand in standard monitoring experiments. Nevertheless, the origins examined may have additional, hitherto unconfirmed resistances to various mechanisms of action.
(§2) The pots were then cultivated in a greenhouse (12-16 h light, temperature day 20-22° C., night 15-18° C.) until the time of application. The pots were treated at various BBCH stages of the seeds/plants on a laboratory track sprayer with spray liquors comprising the compositions according to the invention, mixtures of the prior art or the individual components. Application of the active compounds or active compound combinations and wetting agents formulated as WG, WP, EC or otherwise was carried out at the appropriate growth stages of the plants. The amount of water used for spray application was 100-600 l/ha. After the treatment, the plants were returned to the greenhouses and fertilized and watered as required. The pots were cultivated in a greenhouse (12-16 h light, temperature day 20-22° C., night 15-18° C.).
(§3) 3 weeks after the application, the foliar effect was evaluated on a scale of 0-100%:
(§4) 0%=no noticeable effect compared to untreated plants
(§5) 100%=full effect compared to untreated plants
(§6) The following abbreviations were used: • BBCH the BBCH code provides information about the morphological development stage of a plant. Officially, the abbreviation denotes the Biologische Bundesanstalt, Bundessortenamt and CHemische Industrie [Federal Biological Institute for Agriculture and Forestry, Federal Office for Crop Plant Varieties, Chemical Industry]. The range of BBCH 00-10 denotes the germination stages of the seeds until surface penetration. The range of BBCH 11-25 denotes the leaf development stages until stocking (corresponds to the number of tillers or side-shoots). • PE pre-emergence soil application; BBCH of the seeds/plants 00-10 • PO post-emergence application on the green parts of the plants; BBCH of the plants 11-25 • IU soil loamy silt—standard field soil • l/ha liters per hectare • S sensitive—the weed populations are sensitive to the active compounds tested • TSR target-site resistance. The weed populations comprise biotypes having a site-of-action-specific resistance, i.e. the binding site at the site of action is modified as a result of natural mutations in the gene sequence so that the active compounds are no longer able to bind, or bind in an unsatisfactory manner, and are therefore no longer able to act. • NTR non-target-site herbicide resistance; this is differentiated, inter alia, into EMR (Enhanced Metabolic Resistance) (the weed populations comprise biotypes having metabolic resistance, i.e. the plants are capable of metabolizing the active compounds more quickly via enzyme complexes, i.e. the active compounds are degraded more quickly in the plant), into reduced penetration into the plant, reduced translocation in the plant, accelerated excretion. […]

[2] = system: BRODI; assay: as above; assay type: in vivo, Bromus diformis; conditions: (A) 50, (B) 20, mixture 50 + 20 g of AS/ha, 3 weeks after application
Text: as §1, §2, §3, §4, §5, §6

[3] = system: AMATA; assay: as above; assay type: in vivo, Amaranthus rudis; conditions: (A) 50, (B) 20, mixture 50 + 20 g of AS/ha, 3 weeks after application
Text: as §1, §2, §3, §4, §5, §6

[4] = system: AMAPA; assay: as above; assay type: in vivo, Amaranthus palmeri; conditions: AMAPA resistant - group B (TSR), C1 (TSR) and G (NTR), (A) 50, (B) 20, mixture 50 + 20 g of AS/ha, 3 weeks after application
Text: as §1, §2, §3, §4, §5, §6

[5] = system: APESV; assay: as above; assay type: in vivo, Apera spica-venti; conditions: (A) 50, (B) 20, mixture 50 + 20 g of AS/ha, 3 weeks after application
Text: as §1, §2, §3, §4, §5, §6

[6] = system: LOLSS; assay: as above; assay type: in vivo, Lolium spp.; conditions: (A) 50, (B) 20, mixture 50 + 20 g of AS/ha, 3 weeks after application
Text: as §1, §2, §3, §4, §5, §6

[7] = system: ERIBO; assay: as above; assay type: in vivo, Erigeron bonariensis; conditions: (A) 50, (B) 20, mixture 50 + 20 g of AS/ha, 3 weeks after application
Text: as §1, §2, §3, §4, §5, §6

[8] = system: KCHSC; assay: Greenhouse test, pre-emergence (PE) soil application; assay type: in vivo, Kochia scoparia; parameters: key: % effect: 0 = no effect, 100 = full effect vs untreated; conditions: group (B) compound alone, 20 g of AS/ha
Text: as §1, §2, §3, §4, §5, §6

[9] = system: BIDSU; assay: as above; assay type: in vivo, Bidens subalternans; conditions: group (B) compound alone, 20 g of AS/ha
Text: as §1, §2, §3, §4, §5, §6

[10] = system: AMATA; assay: as above; assay type: in vivo, Amaranthus rudis; parameters: key: % effect: 0 = no effect, 100 = full effect vs untreated; conditions: group (B) compound alone, 20 g of AS/ha
Text: as §1, §2, §3, §4, §5, §6

[11] = system: EPHHL; assay: as above; assay type: in vivo, Euphorbia heterophylla; parameters: key: % effect: 0 = no effect, 100 = full effect vs untreated; conditions: group (B) compound alone, 20 g of AS/ha
Text: as §1, §2, §3, §4, §5, §6

[12] = system: LOLSS; assay: as above; assay type: in vivo, Lolium spp.; parameters: key: % effect: 0 = no effect, 100 = full effect vs untreated plants; conditions: group (B) compound alone, 20 g of AS/ha
Text: as §1, §2, §3, §4, §5, §6

[13] = system: CHEAL; assay: as above; assay type: in vivo, Chenopodium album; parameters: key: % effect: 0 = no effect, 100 = full effect vs untreated; conditions: group (B) compound alone, 20 g of AS/ha
Text: as §1, §2, §3, §4, §5, §6

[14] = system: ERIBO; assay: as above; assay type: in vivo, Erigeron bonariensis; parameters: key: % effect: 0 = no effect, 100 = full effect vs untreated; conditions: group (B) compound alone, 20 g of AS/ha
Text: as §1, §2, §3, §4, §5, §6

[15] = system: TTTTT (all resistant and sensitive biotypes); assay: Greenhouse test, PO application, mean over all resistant and sensitive biotypes; assay type: in vivo; conditions: (A) 50, (B) 20, mixture 50 + 20 g of AS/ha; for TTTTT resistant mean (effect): mean of resistant biotypes (n = 17 or n = 15); for TTTTT sensitive mean (effect): mean of sensitive biotypes (n = 11)
Text: as §1, §2, §3, §4, §5, §6

[16] = KCHSC resistant - group B (TSR)
[17] = BRODI resistant - group A (TSR), B (NTR) and G (NTR)
[18] = AMATA resistant - group B (TSR), C1 (TSR)
[19] = APESV resistant - group B (TSR, NTR) and K1/3 (NA)
[20] = LOLSS resistant - group G (NTR)
[21] = LOLSS resistant group A (TSR, NTR), B (NTR) and C2 (NA)
[22] = LOLSS resistant group A (TSR, NTR), B (TSR, NTR) and C2 (NA)
[23] = ERIBO resistant - group B (NA) and G (NTR)

Compound | foliar effect [1, 16] | foliar effect ([1]; KCHSC sensitive) | foliar effect [2, 17] | foliar effect ([2]; BRODI sensitive) | foliar effect [3, 18] | foliar effect ([3]; AMATA sensitive) | foliar effect [4] | foliar effect [5, 19] | foliar effect ([5]; APESV sensitive) | foliar effect [6, 20] | foliar effect [6, 21] | foliar effect [6, 22] | foliar effect ([6]; LOLSS sensitive) | foliar effect [7, 23] | foliar effect ([7]; ERIBO sensitive) | effect on KCHSC resistant - group B (TSR) [8] | effect on KCHSC sensitive [8] | effect on BIDSU sensitive [9] | effect on AMATA sensitive [10] | effect on EPHHL resistant - group B (TSR) [11] | other results
CCS(=O)(=O)c1cccnc1S(=O)(=O)NC(=O)Nc1nc(OC)cc(OC)n1 [(B3), rimsulfuron] | 0% | 90% | 75% | 100% | 90% | 70% | 70% | 20% | 100% | 60% | 60% | 15% | 95% | 60% | 90% | 20 | 80 | 80 | 70 | 0 | effect on EPHHL resistant - group B (TSR) and G (NTR) [11]: 0; effect on EPHHL sensitive [11]: 30; effect on LOLSS resistant - group G (NTR) [12]: 60; effect on LOLSS resistant group A (TSR, NTR), B (NTR) and C2 (NA) [12]: 50; effect on LOLSS resistant group A (TSR, NTR), B (TSR, NTR) and C2 (NA) [12]: 50; effect on LOLSS sensitive [12]: 70; effect on CHEAL resistant - group B (TSR), C1 (NA) and G (NTR) [13]: 45; effect on CHEAL sensitive [13]: 85; effect on ERIBO resistant - group B (NA) and G (NTR) [14]: 0; effect on ERIBO sensitive [14]: 70; TTTTT resistant mean (effect) [15]: 46%; TTTTT sensitive mean (effect) [15]: 88%
COc1cc(OC)nc(NC(=O)NS(=O)(=O)c2cc(NC=O)ccc2C(=O)N(C)C)n1 [(B2), foramsulfuron] | 0% | 90% | 75% | 100% | 90% | 40% | 40% | 0% | 100% | 50% | 60% | 40% | 100% | 40% | 50% | 0 | 60 | 30 | 60 | 0 | effect on EPHHL resistant - group B (TSR) and G (NTR) [11]: 0; effect on EPHHL sensitive [11]: 30; effect on LOLSS resistant - group G (NTR) [12]: 65; effect on LOLSS resistant group A (TSR, NTR), B (NTR) and C2 (NA) [12]: 80; effect on LOLSS resistant group A (TSR, NTR), B (TSR, NTR) and C2 (NA) [12]: 60; effect on LOLSS sensitive [12]: 78; effect on CHEAL resistant - group B (TSR), C1 (NA) and G (NTR) [13]: 40; effect on CHEAL sensitive [13]: 80; effect on ERIBO resistant - group B (NA) and G (NTR) [14]: 0; effect on ERIBO sensitive [14]: 100; TTTTT resistant mean (effect) [15]: 34%; TTTTT sensitive mean (effect) [15]: 74%
CCOC(=O)c1ccccc1S(=O)(=O)NC(=O)Nc1nc(Cl)cc(OC)n1 [(B4), chlorimuron-ethyl] | 0% | 90% | 70% | 100% | 60% | 30% | 30% | 0% | 100% | 50% | 55% | 0% | 35% | 60% | 80% | 0 | 50 | 90 | 60 | 0 | effect on AMATA resistant - group B (TSR), C1 (TSR) [10]: 50; effect on EPHHL resistant - group B (TSR) and G (NTR) [11]: 40; effect on EPHHL sensitive [11]: 60; effect on LOLSS resistant - group G (NTR) [12]: 60; effect on LOLSS resistant group A (TSR, NTR), B (NTR) and C2 (NA) [12]: 55; effect on LOLSS resistant group A (TSR, NTR), B (TSR, NTR) and C2 (NA) [12]: 10; effect on LOLSS sensitive [12]: 70; effect on CHEAL resistant - group B (TSR), C1 (NA) and G (NTR) [13]: 60; effect on CHEAL sensitive [13]: 90; effect on ERIBO resistant - group B (NA) and G (NTR) [14]: 0; effect on ERIBO sensitive [14]: 100; TTTTT resistant mean (effect) [15]: 31%; TTTTT sensitive mean (effect) [15]: 72%
